From US6967215B2, “Tetrahydrocarbazoles, a process for the preparation of those compounds, and the use thereof” (Ciba Specialty Chemicals Corporation, priority 2000, dated 2005)

Experiments:
Test in all cases: MIC, microtitre dilution test (growth by optical density at 620 nm)
Type in all cases: cell-based
P. aeruginosa = settings: Table 5
Description: All the test organisms are adjusted to an organism count of 1-5×10^6 CFU/ml using 0.85% sodium chloride solution. The test substances are pre-pipetted into microtitre plates in an amount of 8 μl per well. Pre-diluted organism suspensions are diluted 1:100 in CASO bouillon (bacteria and yeast) or Sabouraud 2% glucose bouillon (mould) and are added in an amount of 192 μl per well to the test substances. The test batches are incubated for 48 hours at 37° C. (bacteria and yeast) or for 5 days at 28° C. (mould). After incubation, the growth is evaluated by reference to the turbidity of the test batches (optical density) at 620 nm in a microplate reader. The minimum inhibitory concentration (MIC value) is the concentration of substance at which (compared with the growth of the control) an appreciable inhibition of growth (≦20% growth) of the test organisms is ascertained. One microtitre plate is used for each test organism and substance concentration. All the substances are tested in duplicate.

[1] = system: Aspergillus niger ATCC 6175; settings: Table 5
Description: Nutrient: Mycological slant agar for the pre-culture of moulds [table] The test substances are predissolved in dimethyl sulfoxide (DMSO) and tested in a dilution series of 1:2. Bacteria and yeast are cultured overnight in CASO bouillon, the mould is cultured overnight on mycological slant agar, and washed off with 10 ml of 0.85% sodium chloride solution (+0.1% TritonX-100). All the test organisms are adjusted to an organism count of 1-5×10^6 CFU/ml using 0.85% sodium chloride solution. The test substances are pre-pipetted into microtitre plates in an amount of 8 μl per well. Pre-diluted organism suspensions are diluted 1:100 in CASO bouillon (bacteria and yeast) or Sabouraud 2% glucose bouillon (mould) and are added in an amount of 192 μl per well to the test substances. The test batches are incubated for 48 hours at 37° C. (bacteria and yeast) or for 5 days at 28° C. (mould). After incubation, the growth is evaluated by reference to the turbidity of the test batches (optical density) at 620 nm in a microplate reader. The minimum inhibitory concentration (MIC value) is the concentration of substance at which (compared with the growth of the control) an appreciable inhibition of growth (≦20% growth) of the test organisms is ascertained. One microtitre plate is used for each test organism and substance concentration. All the substances are tested in duplicate.

[2] = system: Escherichia coli NCTC 8196; settings: Table 5
Description: (§1) Casein/soybean flour peptone bouillon for the preparation of pre-cultures of the test bacteria and yeast.
(§2) The test substances are predissolved in dimethyl sulfoxide (DMSO) and tested in a dilution series of 1:2.
(§3) Bacteria and yeast are cultured overnight in CASO bouillon, the mould is cultured overnight on mycological slant agar, and washed off with 10 ml of 0.85% sodium chloride solution (+0.1% TritonX-100).
(§4) All the test organisms are adjusted to an organism count of 1-5×10^6 CFU/ml using 0.85% sodium chloride solution.
(§5) The test substances are pre-pipetted into microtitre plates in an amount of 8 μl per well.
(§6) Pre-diluted organism suspensions are diluted 1:100 in CASO bouillon (bacteria and yeast) or Sabouraud 2% glucose bouillon (mould) and are added in an amount of 192 μl per well to the test substances.
(§7) The test batches are incubated for 48 hours at 37° C. (bacteria and yeast) or for 5 days at 28° C. (mould).
(§8) After incubation, the growth is evaluated by reference to the turbidity of the test batches (optical density) at 620 nm in a microplate reader.
(§9) The minimum inhibitory concentration (MIC value) is the concentration of substance at which (compared with the growth of the control) an appreciable inhibition of growth (≦20% growth) of the test organisms is ascertained.
(§10) One microtitre plate is used for each test organism and substance concentration. All the substances are tested in duplicate.

[3] = system: Staphylococcus hominis DMS 20328; settings: for MIC [ppm] S. hominis: Table 5; for MIC Staphylococcus hominis DSM 20328: Table 3
Description: as §1, §2, §3, §4, §5, §6, §7, §8, §9, §10

[4] = system: Staphylococcus epidermidis ATCC 12228; settings: Table 3
Description: as §1, §2, §3, §4, §5, §6, §7, §8, §9, §10

[5] = system: Micrococcus luteus ATCC 9341; settings: Table 3
Description: as §1, §2, §3, §4, §5, §6, §7, §8, §9, §10

[6] = system: Enterococcus hirae ATCC 10541; settings: Table 3
Description: as §1, §2, §3, §4, §5, §6, §7, §8, §9, §10

[7] = system: Candida albicans ATCC 10259; settings: Table 3
Description: as §1, §2, §3, §4, §5, §6, §7, §8, §9, §10

[8] = system: Corynebacterium xerosis ATCC 373; settings: Table 3
Description: as §1, §2, §3, §4, §5, §6, §7, §8, §9, §10

Row | SMILES | MIC [ppm] P. aeruginosa (P. aeruginosa) [ppm] | MIC [ppm] A. niger [1] [ppm] | MIC [ppm] E. coil [2] [ppm] | MIC [ppm] S. hominis [3] [ppm] | MIC Staphylococcus epidermidis ATCC 12228 [4] | MIC Micrococcus luteus ATCC 9341 [5] | MIC Enterococcus hirae ATCC 10541 [6] [ppm] | MIC Candida albicans ATCC 10259 [7] [ppm] | MIC Staphylococcus hominis DSM 20328 [3] [ppm] | MIC Corynebacterium xerosis ATCC 373 [8]
1 | O=C1NC(=O)C2C1c1[nH]c3ccccc3c1C1CC3CCCCC3CC12 (stereo not drawn) [Compound 183] | >120 | >120 | >120 | 15 | – | – | – | – | – | –
2 | CCCN1CCC2c3c([nH]c4ccc(C(=O)OC)cc34)C3C(=O)NC(=O)C3C2C1 (stereo not drawn) [Compound 235] | >120 | >120 | >120 | 120 | – | – | – | – | – | –
3 | CCCN1CCC2c3c([nH]c4cccc(C)c34)C3C(=O)NC(=O)C3C2C1 (stereo not drawn) [Compound 186] | 120 | >120 | >120 | >120 | – | – | – | – | – | –
4 | CC(C)NCC(O)COc1cccc2[nH]c3c(c12)C1CCCCCC1C1C(=O)NC(=O)C31 (stereo not drawn) [Compound 189] | >120 | >120 | 120 | 15 | – | – | – | – | – | –
5 | CCc1cccc2c3c([nH]c12)C1C(=O)NC(=O)C1C1CCCCCCC31 (stereo not drawn) [compound 89] | – | – | – | – | ≦3.75 ppm | ≦3.75 ppm | >120 | >120 | 7.5 | ≦3.75 ppm
6 | COc1cccc2[nH]c3c(c12)C1CCCCCCCCCCC1C1C(=O)NC(=O)C31 (stereo not drawn) [Compound 188] | >120 | >120 | >120 | 15 | – | – | – | – | – | –
7 | CCCN1CCC2c3c([nH]c4cc(Cl)ccc34)C3C(=O)NC(=O)C3C2C1 (stereo not drawn) [Compound 199] | >120 | >120 | >120 | 120 | – | – | – | – | – | –
8 | CCCN1CCC2c3c([nH]c4cc(F)c(F)cc34)C3C(=O)NC(=O)C3C2C1 (stereo not drawn) [Compound 219] | >120 | >120 | >120 | >120 | – | – | – | – | – | –
9 | CCCN1CCC2c3c([nH]c4cccc(Cl)c34)C3C(=O)NC(=O)C3C2C1 (stereo not drawn) [Compound 224] | 120 | >120 | >120 | >120 | – | – | – | – | – | –
10 | CCCN1CCC2c3c([nH]c4c(C)cccc34)C3C(=O)NC(=O)C3C2C1 (stereo not drawn) [Compound 222] | >120 | >120 | 120 | 120 | – | – | – | – | – | –
11 | CCCN1CCC2c3c([nH]c4ccc(F)cc34)C3C(=O)NC(=O)C3C2C1 (stereo not drawn) [Compound 193] | >120 | >120 | 60 | >120 | – | – | – | – | – | –
12 | CCCN1CCC2c3c([nH]c4cc(C)ccc34)C3C(=O)NC(=O)C3C2C1 (stereo not drawn) [Compound 203] | >120 | >120 | >120 | >120 | – | – | – | – | – | –
13 | COc1cccc2[nH]c3c(c12)C1CCCCCC1C1C(=O)NC(=O)C31 (stereo not drawn) [Compound 187] | 60 | >120 | >120 | 30 | – | – | – | – | – | –
14 | CC1(C)CC2c3c([nH]c4ccccc34)C3C(=O)NC(=O)C3C2C(C)(C)C1 (stereo not drawn) [compound 63] | – | – | – | – | ≦3.75 ppm | ≦3.75 ppm | 7.5 | >120 | 7.5 | ≦3.75 ppm
15 | CCCN1CCC2c3c([nH]c4c(F)cccc34)C3C(=O)NC(=O)C3C2C1 (stereo not drawn) [Compound 211] | 120 | >120 | 120 | >120 | – | – | – | – | – | –
16 | CCCN1CCC2c3c([nH]c4cc(F)ccc34)C3C(=O)NC(=O)C3C2C1 (stereo not drawn) [Compound 207] | 120 | >120 | >120 | >120 | – | – | – | – | – | –
17 | CCCN1CCC2c3c([nH]c4c(OC)cccc34)C3C(=O)NC(=O)C3C2C1 (stereo not drawn) [Compound 229] | >120 | >120 | >120 | >120 | – | – | – | – | – | –
18 | CCCN1CCC2c3c([nH]c4cc(OC)c(OC)cc34)C3C(=O)NC(=O)C3C2C1 (stereo not drawn) [Compound 238] | >120 | >120 | >120 | >120 | – | – | – | – | – | –
19 | CCCN1CCC2c3c([nH]c4cc(C(F)(F)F)ccc34)C3C(=O)NC(=O)C3C2C1 (stereo not drawn) [Compound 215] | 120 | >120 | 60 | 30 | – | – | – | – | – | –
20 | CCCN1CCC2c3c([nH]c4cc(OC)ccc34)C3C(=O)NC(=O)C3C2C1 (stereo not drawn) [Compound 231] | 120 | >120 | >120 | 120 | – | – | – | – | – | –
21 | CCCN1CCC2c3c([nH]c4cccc(OCC(O)CNC(C)C)c34)C3C(=O)NC(=O)C3C2C1 (stereo not drawn) [Compound 190] | >120 | >120 | >120 | >120 | – | – | – | – | – | –
22 | CCCN1CCC2c3c([nH]c4cccc(C(=O)OC)c34)C3C(=O)NC(=O)C3C2C1 (stereo not drawn) [Compound 201] | 60 | >120 | >120 | >120 | – | – | – | – | – | –
23 | CCCN1CCC2c3c([nH]c4cccc(F)c34)C3C(=O)NC(=O)C3C2C1 (stereo not drawn) [Compound 226] | >120 | >120 | 120 | 120 | – | – | – | – | – | –
